Test results: the supplement of paper PMC6045584
± gives the standard deviation of the averaged measurements.

How the values were obtained:
SUNITINIB = compound: CCN(CC)CCNC(=O)c1c(C)[nH]c(/C=C2\C(=O)Nc3ccc(F)cc32)c1C [SUNITINIB]; assay: surviving fraction relative to DMSO-only wells; higher = less growth inhibition; conditions: exposure time: 5 days
Method in brief: (§1)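 In 384-well plates, 250–500 log-phase tumour cells per well were given 24 hours before five days of continuous exposure to inhibitors at 0.5, 1, 5, 10, 50, 100, 500 and 1000 nM. Surviving fraction is luminescence from CellTiter-Glo, normalised to the median of wells containing DMSO alone. Reading took place after 10 minutes at room temperature.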

[1] = compound: O=C(NOCC1CC1)c1ccc(F)c(F)c1Nc1ccc(I)cc1Cl; assay: as above; conditions: exposure time: 5 days
Method in brief: as §1

Test System	surviving fraction (SUNITINIB; 0.5 nM)	surviving fraction (SUNITINIB; 1 nM)	surviving fraction (SUNITINIB; 5 nM)	surviving fraction (SUNITINIB; 50 nM)	surviving fraction (SUNITINIB; 100 nM)	surviving fraction (SUNITINIB; 500 nM)	surviving fraction (SUNITINIB; 1000 nM)	surviving fraction ([1]; 0.5 nM)	surviving fraction ([1]; 1 nM)	surviving fraction ([1]; 5 nM)	surviving fraction ([1]; 10 nM)	surviving fraction ([1]; 50 nM)	surviving fraction ([1]; 100 nM)	surviving fraction ([1]; 500 nM)	surviving fraction ([1]; 1000 nM)	surviving fraction (SUNITINIB; 10 nM)
SG43 HEADNECK	1.27 ± 0.13	1.25 ± 0.068	0.975 ± 0.18	0.824 ± 0.12	1.02 ± 0.13	0.982 ± 0.09	1.52 ± 0.029	1.05 ± 0.079	0.969 ± 0.011	0.853 ± 0.17	0.676 ± 0.16	0.567 ± 0.1	0.521 ± 0.06	0.387 ± 0.07	0.333 ± 0.064	–
RDES SOFT TISSUE	0.851 ± 0.24	0.741 ± 0.2	0.794 ± 0.11	–	1.08 ± 0.19	1.17 ± 0.17	0.567 ± 0.099	1.33 ± 0.025	1.27 ± 0.071	1.32 ± 0.15	1.33 ± 0.093	1.28 ± 0.1	1.29 ± 0.085	1.37 ± 0.16	1.24 ± 0.082	0.794 ± 0.12
SKBR3 BREAST	–	0.795 ± 0.073	0.738 ± 0.1	0.875 ± 0.035	0.867 ± 0.084	0.64 ± 0.064	0.492 ± 0.014	1.12 ± 0.17	1.1 ± 0.13	1.11 ± 0.07	1.1 ± 0.26	1.08 ± 0.19	1.05 ± 0.14	1.06 ± 0.14	1.05 ± 0.13	0.696 ± 0.12
OS25HAL BONE	0.886 ± 0.014	–	–	0.926 ± 0.038	0.925 ± 0.02	0.767 ± 0.07	0.431 ± 0.04	0.951 ± 0.024	0.964 ± 0.02	0.931 ± 0.033	0.971 ± 0.025	0.955 ± 0.015	0.989 ± 0.012	0.943 ± 0.012	0.954 ± 0.024	0.871 ± 0.053
S68 BREAST	0.716 ± 0.13	0.674 ± 0.15	–	1.07 ± 0.098	0.98 ± 0.13	0.709 ± 0.065	0.488 ± 0.1	0.917 ± 0.13	0.918 ± 0.21	0.901 ± 0.063	1.04 ± 0.27	0.801 ± 0.18	0.852 ± 0.13	0.669 ± 0.1	0.544 ± 0.096	0.74 ± 0.18
